Consider 142 compounds from a melting point compilation (Tetko et al.).

The structures appear in SMILES notation.

The conditions of the series: a range is the spread between reports.
Broadly, the melting point is the temperature, or range, at which the solid turns liquid. Regarding `Brc1cnc2ccccc2c1`, the melting point was 13.3 to 14 °C.
Consider `ClCC1CO1` (configuration not stated), for which the melting point is -57.2 to -57 °C.
`CC#CCO` showed a melting point of -2.2 to -2 °C.
`Clc1ccc(Br)c(Cl)c1` gave a melting point of 26 to 27 °C.
Then `ClCC(Cl)Cl`, with -37 to -35 °C; and `CC(C)CCC(C)(C)C`, with -106 °C; and `O=C(O)c1ccc2c(c1)OCO2`, with 229 to 233 °C.
Compound `CC(=O)/C=C/c1ccccc1` returned a melting point of 40 to 42 °C.
In the case of `CC(C)CC(=O)O`, the melting point is -33 to -29.3 °C.
Compound `NC(=O)c1ccc(N)nc1` registered a melting point of 246 to 247 °C.
As to `O=C1C(=O)c2ccccc2-c2ccccc21`, the melting point was 206 to 210 °C.
The compound `C1CCC1` displayed a melting point of -91 to -90.6 °C.
Then `c1ccc([Si](c2ccccc2)(c2ccccc2)c2ccccc2)cc1`, with 236 to 237 °C.
`COc1ccc(C(=O)OC(=O)c2ccc(OC)cc2)cc1` displayed a melting point of 94.5 to 97 °C.
On to `O=[N+]([O-])c1ccc(O)c(F)c1`, for which the melting point lay within 119 to 121 °C.
As for `CC(C)(C)c1ccc(O)c(O)c1`, the figure is 54.3 to 55 °C.
As to `Cc1c(C)c(C)c(Br)c(C)c1C`, the melting point fell in the range of 162 to 165 °C.
With `CCCOCC`, the melting point is -128 to -127 °C.
The compound `O=[N+]([O-])c1cc([N+](=O)[O-])c2ccccc2c1` came in with a melting point of 147 to 148 °C.
Regarding `Cc1ncc([N+](=O)[O-])n1C`, the melting point was in the range of 137 to 140 °C.
Turning to `COc1cc(O)ccc1O`, the melting point is 89 to 90 °C.
As for `O=C(Cl)C(c1ccccc1)c1ccccc1`, the melting point is 53 to 56.5 °C.
Compound `CCCCCCCCC` yielded a melting point of -54 to -53 °C.
`CCC(=O)C(CC(C)N(C)C)(c1ccccc1)c1ccccc1` (configuration not stated) registered a melting point of 98.8 to 102 °C.
For `CC1CCC(C)C1C` (configuration not stated), the melting point is -116 to -112 °C.
In turn, `C=Cc1ccccc1Br` yielded a melting point of -53 to -52.5 °C.
Take `CSC(C)C`: the melting point is -102 °C.
As for `O=NN1CN2CN(C1)CN(N=O)C2`, the figure is 204 to 207 °C; as for `c1ccc(P(CCCP(c2ccccc2)c2ccccc2)c2ccccc2)cc1`, 60 to 61 °C.
As for `CNC(=O)c1ccccc1`, the melting point lay within 79 to 82 °C.
In turn, `COc1ccccc1OCC(O)CO` (configuration not stated) returned a melting point of 78.5 to 81 °C.
In turn, `CCCCOc1ccccc1` displayed a melting point of -19.4 to -19 °C.
For `CN(C)c1ccc(Cc2ccc(N(C)C)cc2)cc1`, the melting point lay in the range of 87 to 91.5 °C.
On to `CN(C)c1ccc(C(=O)c2ccc(N(C)C)cc2)cc1`, for which the melting point lay in the range of 175 to 179 °C.
Then `Cc1ccc([N+](=O)[O-])c(F)c1`, with 53 to 53.2 °C; and `Cc1cnc2ccccc2c1`, with 15 to 16.5 °C; and `CC=C(C)CCC`, with -119 to -118 °C.
`O=C1CCCCC1=O`: the melting point lay in the range of 37 to 40 °C.
In turn, `O=[N+]([O-])c1cccc(Cl)c1Cl` returned a melting point of 61.5 to 62 °C.
`Clc1cc(Cl)nc(Cl)n1`: the melting point lay within 22.5 to 23 °C.
Consider `O=C(c1ccccc1)c1ccccc1C(F)(F)F`, for which the melting point lay within 60 to 61 °C.
The compound `CCCCCCCCCCCCCCCCCCCCCCCCCCCC` yielded a melting point of 62 to 64.5 °C.
Turning to `CCCCCCCCCC(=O)O`, the melting point was in the range of 31 to 32 °C.
As for `O=C(O)c1ccc(CBr)cc1`, the melting point was 225 to 230 °C.
As for `CCC1CC1`, the figure is -149 °C; as for `FC(Br)(Br)Br`, -74 to -73.6 °C; as for `O=C(c1ccccc1)C(Cl)c1ccccc1` (configuration not stated), 67 to 68.5 °C.
Take `CC(C)CCCC(C)C`: the melting point is -103 °C.
On to `CCC(C)(C)C(C)C`, for which the melting point was -101 °C.
As to `O=C(O)CI`, the melting point lay within 81 to 82.5 °C.
Take `O=[N+]([O-])c1ccc(F)cc1F`: the melting point was in the range of 9 to 10 °C.
Compound `c1ccoc1` displayed a melting point of -85.6 to -85 °C.
Consider `O=C(O)c1cccc([N+](=O)[O-])c1C(=O)O`, for which the melting point lay in the range of 210 to 212 °C.
The compound `O=C(O)C12CC3CC(CC(C3)C1)C2` came in with a melting point of 174 to 175 °C.
For `ClCCCCl`, the melting point is -100 to -99.5 °C.
On to `CCCCCCCCCCl`, for which the melting point is -39.4 to -39 °C.
In the case of `ClCc1ccc(Cl)cc1Cl`, the melting point is -3 to -2.6 °C.
`NNS(=O)(=O)c1ccccc1` yielded a melting point of 102 to 103 °C.
Regarding `CC1CCCC1(C)C` (configuration not stated), the melting point was -22 to -21.6 °C.
As for `Nc1ccccc1[N+](=O)[O-]`, the figure is 71 to 73 °C.
For the compound `CC(C)C(C)(C)O`, the melting point was -14 to -10 °C.
Regarding `CCOC(=O)c1cc([N+](=O)[O-])cc([N+](=O)[O-])c1`, the melting point was 92 to 94 °C.
Then `Cc1cc(Br)ccc1O`, with 64 to 64.7 °C; and `Nc1cccc(O)c1`, with 123 to 125 °C.
Then `CCCCCCC#N`, with -64 to -63 °C; and `Sc1ccccn1`, with 127 to 129 °C.
In the case of `CN(C)CCC=C1c2ccccc2CCc2ccccc21`, the melting point was 196 °C.
As for `N#CCCC#N`, the figure is 54 to 56 °C; as for `C#CC1(O)CCCCC1`, 31.5 to 33 °C.
For `CC1CCCCC1`, the melting point was -127 to -126 °C.
Then `O=Cc1ccc(I)cc1`, with 77 to 78 °C; and `Oc1ccccc1Cl`, with 7 to 9.8 °C; and `CC(=O)Nc1ccc(Cl)cc1F`, with 155 to 157 °C.
Then `CS(=O)(=O)OCCCCOS(C)(=O)=O`, with 116 °C; and `c1csc(-c2ccc(-c3cccs3)s2)c1`, with 92 to 93.5 °C.
The compound `BrC1CCCCC1` returned a melting point of -57 to -56.5 °C.
`Cc1ccc(C)c(O)c1` had a melting point of 74 to 76 °C.
For `CCCCCCCCCCCCCCCCCC(=O)OC`, the melting point was 39.1 to 40 °C.
As for `Oc1ccc(Cc2ccccc2)cc1`, the figure is 83 to 84 °C.
Turning to `COC(=O)CCCCCCCCCCC(=O)OC`, the melting point lay within 30 to 31.9 °C.
In the case of `c1ccc2c(c1)ccc1cc3c(ccc4ccccc43)cc12`, the melting point is 266 to 270 °C.
For the compound `CC(Br)CBr` (configuration not stated), the melting point is -55.5 to -55 °C.
`CCCCl` showed a melting point of -123 to -122 °C.
With `Cc1ccc(O)cc1Cl`, the melting point is 52 to 55.5 °C.
The compound `FC(F)(F)c1ccc(Cl)cc1` registered a melting point of -36 to -33 °C.
Regarding `CCC(Br)CC`, the melting point is -126 °C.
Then `CCC(C(=O)O)C(=O)O`, with 113 to 114 °C.
`O=C(Cl)c1ccc(Br)cc1` showed a melting point of 40 to 42 °C.
Compound `CCCCCl` had a melting point of -123 °C.
Compound `CC(Oc1ccccc1)C(=O)O` (configuration not stated) displayed a melting point of 118 °C.
The compound `CC(=O)C(C)C` registered a melting point of -93.1 to -92 °C.
As for `Cc1ccncc1`, the figure is 3 to 3.66 °C.
In turn, `O=C1Nc2ccccc2C1=O` came in with a melting point of 200 to 203 °C.
In turn, `COC(=O)C(Cl)Cl` yielded a melting point of -52 to -51.9 °C.
Regarding `CCOC(=O)c1ccco1`, the melting point is 34 to 34.5 °C.
Then `CCCCc1ccccc1`, with -88 to -87.9 °C; and `CN1CCN(C)C1=O`, with 8 to 8.2 °C; and `O=C(O)C(O)c1ccc(Br)cc1` (configuration not stated), with 117 to 118 °C.
For `O=C(Cl)c1ccc(C(=O)Cl)cc1`, the melting point lay within 81 to 83.5 °C.
Turning to `C[Si](C)(C)[Si](C)(C)C`, the melting point lay in the range of 12 to 13.5 °C.
In turn, `CCC(N)=O` came in with a melting point of 78 to 81.3 °C.
Turning to `CCCOC1CCC2(C)C(CC(=O)C3C2CCC2(C)C(OCCC)CCC32)C1` (configuration not stated), the melting point lay in the range of 161 to 163 °C.
Regarding `CC(=O)Nc1ccc(C#N)cc1`, the melting point fell in the range of 205 to 207 °C.
`CCCCCCCCCCCC(C)O` (configuration not stated): the melting point was 23 to 25 °C.
As for `COc1ccccc1N`, the figure is 5 to 6.2 °C; as for `O=[N+]([O-])NC1=NCCN1Cc1ccc(Cl)nc1`, 140 to 144 °C; as for `COC(=O)c1ccc(N)cc1`, 110 to 114 °C.
On to `CC(C)=C(C)C(C)C`, for which the melting point is -113 °C.
As for `Cc1ccc(C#N)cc1`, the figure is 28 to 29.5 °C.
As for `COc1ccccc1CC#N`, the figure is 66 to 69.8 °C; as for `c1ccc(CNCCNCc2ccccc2)cc1`, 24 to 26 °C; as for `CCc1ccc(C)c(C)c1`, -67 to -66.9 °C.
Take `CCCCOC=O`: the melting point was -92 to -91.5 °C.
As for `Fc1ccccc1`, the figure is -42.2 to -40 °C; as for `CC=C(C)C`, -134 °C.
For `OCc1ccccc1Br`, the melting point lay within 80 to 81 °C.
Take `Cc1c(F)c(F)c(F)c(F)c1F`: the melting point is -30 to -29.8 °C.
The compound `Cc1ccc2n[nH]nc2c1` came in with a melting point of 81 °C.
As to `O=C(c1ccc(O)cc1O)c1ccc(O)cc1O`, the melting point was 201 to 202 °C.
Then `Cc1cc(N)ccc1Br`, with 79 to 81 °C; and `CC(=O)c1cccs1`, with 10 to 10.5 °C.
The compound `O=C(O)c1ccc(CO)cc1` returned a melting point of 181 to 182 °C.
Turning to `CC/C=C/CC(=O)O`, the melting point was in the range of 11 to 12 °C.
Then `O=C1C=Cc2cccc3cccc1c23`, with 154 °C; and `Brc1cncc2ccccc12`, with 41 to 41.5 °C.
In turn, `O=C(O)CCCC(=O)O` had a melting point of 96.5 to 97.8 °C.
Then `NNc1c(F)c(F)cc(F)c1F`, with 89 to 92 °C; and `O=[N+]([O-])c1ccc(C(F)(F)F)cc1`, with 39 to 40 °C.
The compound `CC(=O)c1ccc(Br)s1` displayed a melting point of 94.5 to 95 °C.
As for `Nc1ccc(Br)cc1[N+](=O)[O-]`, the figure is 112 °C.
For the compound `O=CN1CCOCC1`, the melting point is 21 to 22 °C.
Then `Nc1cccc2c1C(=O)c1ccccc1C2=O`, with 250 to 254 °C.
As for `N#Cc1nn(-c2c(Cl)cc(C(F)(F)F)cc2Cl)c(N)c1S(=O)C(F)(F)F` (configuration not stated), the figure is 199 to 200 °C; as for `Cc1cc(O)ccc1Br`, 59 to 64 °C; as for `CC1OC1C` (configuration not stated), -85 to -80 °C.
Then `c1ccc(-n2cccc2)cc1`, with 59 to 62 °C; and `NCCCN1CCN(CCCN)CC1`, with 14 to 15 °C; and `O=Cc1ccco1`, with -38.1 to -36 °C.
As for `CCCCCCCCCCCCCCCCCCN`, the melting point was in the range of 52.9 to 56 °C.
For the compound `CC(=O)Nc1c(C)cccc1C`, the melting point is 181 to 183 °C.
Take `Cc1ccc(C(C)C)cc1O`: the melting point fell in the range of 1 to 2 °C.
Turning to `CCOc1ccccc1O`, the melting point was in the range of 26 to 29 °C.
